According to patent US9457033B2, “Steroid alkaloids and uses thereof as antimicrobial agents against electron transport-deficient microbes and as potentiators for antimicrobial agents against pathogenic bacteria” (priority 2011, dated 2016):

What was measured:
S. aureus SCV CF07S = test: microbe, parasite or virus in culture; format: cell-based; conditions: Staphylococcus aureus, SCVCF07S; Tomatidine (50 μg); menadione auxotrophy; 24 hours at 37° C. with O2; DMSO control 0; read-out: Diameter of inhibition zone
SCV CF07-S = test: Tomatidine susceptibility with supplemental menadione, spotted on agar (FIG. 1A); format: cell-based, Staphylococcus aureus; conditions: in the presence of supplemental menadione
Protocol: Normal (Newbould, CF07-L and CF1A-L), and SCV (NewbouldΔhemB (in the presence and absence of hemin), CF07-S (in the presence and absence of menadione) and CF1D-S) S. aureus strains were treated with various concentrations of tomatidine (4, 2, 1, 0.5, 0.25, 0.12 and 0.06 μg/ml) for 48 h in the Brain Hearth Infusion (BHI) medium at 35° C. and 10 μl samples were thereafter spotted on agar plated which were further incubated for 48 h before a picture was taken.

## C[C@H]1CC[C@]2(NC1)O[C@H]1C[C@H]3[C@@H]4CC[C@H]5C[C@@H](O)CC[C@]5(C)[C@H]4CC[C@]3(C)[C@H]1[C@@H]2C [Tomatidine, tomatidine]
S. aureus SCV CF07S
  zone of inhibition at 50 µg/disc: 22.5 mm
SCV CF07-S
  susceptibility to tomatidine: abolished
